Experimental data as given in article PMC11397024, “Strategic Fluorination to Achieve a Potent, Selective, Metabolically Stable, and Orally Bioavailable Inhibitor of CSNK2” (Molecules, 2024).

Legend:
Assay in all cases: NanoBRET K192
Format in all cases: cell-based
NEK9 = target: T1, NEK9 (Homo sapiens, UniProt Q8TD19); conditions: HEK293
T1 construct: purchased Promega (NanoBRET Target Engagement K192 Kinase Selectivity System)
Procedure: (§1) The K192 selectivity assay was run according to the Draft Promega technical manual, NanoBRET^TM Target Engagement K192 Kinase Selectivity System. Reagents were supplied by Promega (Promega NP 4101). For the assay, DNA from the prepared kinase vector panel plates A and B were mixed with Fugene in 96-well plates (Corning 3917) and incubated at room temperature for 30 min. The NanoLuc® Low control vector pNL1.1.CMV [Nluc/CMV] Vector (Cat.# N1091) and the transfection control vector NanoLuc®-HIPK2 Fusion Vector (Cat.# NV3221) were used as controls.
(§2) HEK293 cells were grown to 75–95% confluency in DMEM (Gibco 11995-065) supplemented with FBS (Avantor 97068-085) at 37 °C in […]. On the first day of the assay, cells were harvested and resuspended in Opti-MEM (Gibco 11058-021) supplemented with 1% FBS (Avantor 97068-085) at 2.5 × 10^5 cells per mL. A volume of 60 μL of cell suspension was mixed with 10 μL of prepared DNA (10X concentration) and 30 μL of Fugene (30 μL/mL in Opti-MEM) as outlined by Promega and incubated overnight at 37 °C in a 5% CO2 incubator.
(§3) On day two of the assay, 5 μL of 20X K10 tracer was prepared and added at concentrations recommended by Promega. Then, 10 μL of test compounds at 100 μM in Opti-MEM (diluted from a 10 mM solution in DMSO) was added to the test wells while an equivalent volume of Opti-MEM was added to the high-control wells. Plates were kept at 37 °C in a 5% CO2 incubator for two hours. After two hours, plates were allowed to equilibrate to room temperature for 15 min. A solution of 3X Complete Substrate plus Inhibitor Solution was freshly prepared, consisting of a 1:166 dilution of NanoBRET™ Nano-Glo® Substrate plus a 1:500 dilution of Extracellular NanoLuc® Inhibitor in Opti-MEM® medium without serum or phenol red. A 50 μL volume of the 3X Complete Substrate plus Inhibitor Solution was added to each assay well, including control wells. After 2–3 min, the plate was shaken at 300 RPM for 10 s, and the donor emission wavelength (450 nm) and acceptor emission wavelength (610 nm) were measured using the Glomax® Discover System.
(§4) As a quality check, the donor signal-to-background ratio was calculated for each individual kinase by dividing the mean donor signal for each kinase by the mean donor signal for the signal-to-background control wells. Fractional occupancy of the test drug for each kinase was determined using the following formula:Occupancy (%) = [1 − (Sample − Bottom)/(Top − Bottom)] × 100 where

NIM1K = target: T2, NIM1K (Homo sapiens, UniProt Q8IY84); conditions: HEK293
T2 construct: host or cells: HEK293
Procedure: as §1, §2, §3, §4

BMP2K = target: T3, BMP2K (Homo sapiens, UniProt Q9NSY1); conditions: HEK293
T3 construct: purchased Promega (NanoBRET Target Engagement K192 Kinase Selectivity System)
Procedure: as §1, §2, §3, §4

CHEK2 = target: T4, CHEK2 (Homo sapiens, UniProt O96017); conditions: HEK293
T4 construct: purchased Promega (NanoBRET Target Engagement K192 Kinase Selectivity System)
Procedure: as §1, §2, §3, §4

AXL = target: T5, AXL (Homo sapiens, UniProt P30530); conditions: HEK293
T5 construct: host or cells: HEK293
Procedure: as §1, §2, §3, §4

MLTK = target: T6, MLTK (Homo sapiens, UniProt Q9NYL2); conditions: HEK293
T6 construct: purchased Promega (NanoBRET Target Engagement K192 Kinase Selectivity System)
T6 sequence (Q9NYL2 whole entry): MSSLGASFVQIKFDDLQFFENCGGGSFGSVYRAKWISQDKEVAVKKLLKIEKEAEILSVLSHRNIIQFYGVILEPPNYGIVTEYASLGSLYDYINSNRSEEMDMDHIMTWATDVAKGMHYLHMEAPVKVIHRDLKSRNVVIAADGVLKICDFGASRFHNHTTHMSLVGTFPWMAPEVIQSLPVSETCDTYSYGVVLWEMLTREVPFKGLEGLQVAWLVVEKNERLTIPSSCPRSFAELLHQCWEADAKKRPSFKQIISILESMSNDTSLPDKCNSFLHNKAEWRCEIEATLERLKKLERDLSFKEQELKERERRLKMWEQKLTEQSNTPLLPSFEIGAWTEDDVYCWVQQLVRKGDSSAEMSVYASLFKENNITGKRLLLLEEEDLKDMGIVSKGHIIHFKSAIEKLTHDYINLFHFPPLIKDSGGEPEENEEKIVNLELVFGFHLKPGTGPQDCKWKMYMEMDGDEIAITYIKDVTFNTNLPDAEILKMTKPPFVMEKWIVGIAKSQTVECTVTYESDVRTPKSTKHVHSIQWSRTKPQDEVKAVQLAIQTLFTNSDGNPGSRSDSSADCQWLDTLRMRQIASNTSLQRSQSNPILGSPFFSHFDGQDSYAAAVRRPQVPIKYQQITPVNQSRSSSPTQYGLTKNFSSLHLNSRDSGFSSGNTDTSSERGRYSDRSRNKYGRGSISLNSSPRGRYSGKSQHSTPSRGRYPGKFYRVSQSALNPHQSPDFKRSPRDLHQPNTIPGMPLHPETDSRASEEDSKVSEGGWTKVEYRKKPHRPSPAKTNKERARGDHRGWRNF
Procedure: as §1, §2, §3, §4

IRAK3 = target: T7, IRAK3 (Homo sapiens, UniProt Q9Y616); conditions: HEK293
T7 construct: purchased Promega (NanoBRET Target Engagement K192 Kinase Selectivity System)
Procedure: as §1, §2, §3, §4

CAMK1 = target: T8, CAMK1 (Homo sapiens, UniProt Q14012); conditions: HEK293
T8 construct: purchased Promega (NanoBRET Target Engagement K192 Kinase Selectivity System)
Procedure: as §1, §2, §3, §4

STK3 = target: T9, STK3 (Homo sapiens, UniProt Q13188); conditions: HEK293
T9 construct: purchased Promega (NanoBRET Target Engagement K192 Kinase Selectivity System)
Procedure: as §1, §2, §3, §4

TEK = target: T10, TEK (Homo sapiens, UniProt Q02763); conditions: HEK293
T10 construct: purchased Promega (NanoBRET Target Engagement K192 Kinase Selectivity System)
T10 sequence (Q02763 23-1124): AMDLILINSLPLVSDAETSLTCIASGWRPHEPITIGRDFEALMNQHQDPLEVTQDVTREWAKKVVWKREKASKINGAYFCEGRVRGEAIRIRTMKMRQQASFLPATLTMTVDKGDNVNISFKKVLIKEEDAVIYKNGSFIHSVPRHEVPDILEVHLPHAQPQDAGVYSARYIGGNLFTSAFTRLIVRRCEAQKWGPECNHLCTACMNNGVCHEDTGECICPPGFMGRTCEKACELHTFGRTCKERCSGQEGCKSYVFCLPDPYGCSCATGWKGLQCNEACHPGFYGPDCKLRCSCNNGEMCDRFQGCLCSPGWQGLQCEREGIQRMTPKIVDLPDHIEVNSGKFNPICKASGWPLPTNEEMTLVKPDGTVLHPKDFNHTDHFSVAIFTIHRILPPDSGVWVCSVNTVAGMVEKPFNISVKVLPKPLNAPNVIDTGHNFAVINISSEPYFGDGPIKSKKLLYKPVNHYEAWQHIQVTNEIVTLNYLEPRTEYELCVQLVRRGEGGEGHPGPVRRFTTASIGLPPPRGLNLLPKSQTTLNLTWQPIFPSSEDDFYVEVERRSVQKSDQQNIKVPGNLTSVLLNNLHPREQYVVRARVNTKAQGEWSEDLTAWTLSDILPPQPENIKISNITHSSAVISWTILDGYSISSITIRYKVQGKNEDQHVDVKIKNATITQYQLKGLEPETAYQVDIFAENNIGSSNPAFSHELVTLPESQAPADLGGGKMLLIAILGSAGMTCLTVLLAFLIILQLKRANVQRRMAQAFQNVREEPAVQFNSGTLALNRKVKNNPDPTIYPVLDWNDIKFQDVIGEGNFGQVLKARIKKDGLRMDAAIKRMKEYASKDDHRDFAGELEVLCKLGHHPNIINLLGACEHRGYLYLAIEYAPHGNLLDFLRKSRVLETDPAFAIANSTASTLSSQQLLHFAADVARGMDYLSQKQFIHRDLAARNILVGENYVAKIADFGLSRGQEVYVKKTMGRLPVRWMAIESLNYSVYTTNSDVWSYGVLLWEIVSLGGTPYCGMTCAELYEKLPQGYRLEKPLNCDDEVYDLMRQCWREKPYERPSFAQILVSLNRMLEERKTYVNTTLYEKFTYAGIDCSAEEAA
Procedure: as §1, §2, §3, §4

MAP3K9 = target: T11, MAP3K9 (Homo sapiens, UniProt P80192); conditions: HEK293
T11 construct: purchased Promega (NanoBRET Target Engagement K192 Kinase Selectivity System)
Procedure: as §1, §2, §3, §4

CSNK1A1L = target: T12, CSNK1A1L (Homo sapiens, UniProt Q8N752); conditions: HEK293
T12 construct: purchased Promega (NanoBRET Target Engagement K192 Kinase Selectivity System)
Procedure: as §1, §2, §3, §4

NEK5 = target: T13, NEK5 (Homo sapiens, UniProt Q6P3R8); conditions: HEK293
T13 construct: purchased Promega (NanoBRET Target Engagement K192 Kinase Selectivity System)
Procedure: as §1, §2, §3, §4

RIOK2 = target: T14, RIOK2 (Homo sapiens, UniProt Q9BVS4); conditions: HEK293
T14 construct: purchased Promega (NanoBRET Target Engagement K192 Kinase Selectivity System)
Procedure: as §1, §2, §3, §4

MYLK2 = target: T15, MYLK2 (Homo sapiens, UniProt Q9H1R3); conditions: HEK293
T15 construct: purchased Promega (NanoBRET Target Engagement K192 Kinase Selectivity System)
Procedure: as §1, §2, §3, §4

PLK3 = target: T16, PLK3 (Homo sapiens, UniProt Q9H4B4); conditions: HEK293
T16 construct: purchased Promega (NanoBRET Target Engagement K192 Kinase Selectivity System)
Procedure: as §1, §2, §3, §4

MAP4K5 = target: T17, MAP4K5 (Homo sapiens, UniProt Q9Y4K4); conditions: HEK293
T17 construct: purchased Promega (NanoBRET Target Engagement K192 Kinase Selectivity System)
Procedure: as §1, §2, §3, §4

DYRK1A = target: T18, DYRK1A (Homo sapiens, UniProt Q13627)
T18 construct: purchased Promega (NanoBRET Target Engagement K192 Kinase Selectivity System)
Procedure: as §1, §2, §3, §4

STK10 = target: T19, STK10 (Homo sapiens, UniProt O94804); conditions: HEK293
T19 construct: purchased Promega (NanoBRET Target Engagement K192 Kinase Selectivity System)
T19 sequence (O94804 whole entry): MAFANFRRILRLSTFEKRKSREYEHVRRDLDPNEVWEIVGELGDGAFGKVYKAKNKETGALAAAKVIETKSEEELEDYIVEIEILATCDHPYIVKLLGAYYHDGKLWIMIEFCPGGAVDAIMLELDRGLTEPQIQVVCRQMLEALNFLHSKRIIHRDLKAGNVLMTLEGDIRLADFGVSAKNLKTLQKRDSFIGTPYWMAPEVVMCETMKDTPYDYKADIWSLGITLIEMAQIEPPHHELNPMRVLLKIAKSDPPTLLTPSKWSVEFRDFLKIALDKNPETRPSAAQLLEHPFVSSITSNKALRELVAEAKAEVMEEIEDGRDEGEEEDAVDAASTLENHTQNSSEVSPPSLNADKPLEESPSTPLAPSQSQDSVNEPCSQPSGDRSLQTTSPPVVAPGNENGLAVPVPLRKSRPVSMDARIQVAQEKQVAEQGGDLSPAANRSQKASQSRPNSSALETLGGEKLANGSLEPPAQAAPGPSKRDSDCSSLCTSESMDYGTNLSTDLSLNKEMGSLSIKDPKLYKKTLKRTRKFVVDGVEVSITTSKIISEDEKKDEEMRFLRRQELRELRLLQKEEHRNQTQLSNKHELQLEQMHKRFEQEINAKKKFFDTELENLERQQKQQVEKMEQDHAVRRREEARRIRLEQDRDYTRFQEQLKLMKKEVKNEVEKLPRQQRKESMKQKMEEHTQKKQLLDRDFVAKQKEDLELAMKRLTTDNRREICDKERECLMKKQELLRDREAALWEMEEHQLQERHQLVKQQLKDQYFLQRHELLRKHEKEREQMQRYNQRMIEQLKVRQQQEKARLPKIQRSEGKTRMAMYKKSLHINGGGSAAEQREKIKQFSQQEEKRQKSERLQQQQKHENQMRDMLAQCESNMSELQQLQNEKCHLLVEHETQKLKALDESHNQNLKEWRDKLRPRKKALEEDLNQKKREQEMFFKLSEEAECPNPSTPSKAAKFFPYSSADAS
Procedure: as §1, §2, §3, §4

CDK18 + Y = target: T20, CDK18 + Y (Homo sapiens, UniProt Q07002); conditions: HEK293
T20 construct: purchased Promega (NanoBRET Target Engagement K192 Kinase Selectivity System)
Procedure: as §1, §2, §3, §4

MAP3K10 = target: T21, MAP3K10 (Homo sapiens, UniProt Q02779); conditions: HEK293
T21 construct: host or cells: HEK293
Procedure: as §1, §2, §3, §4

MKNK2 = target: T22, MKNK2 (Homo sapiens, UniProt Q9HBH9); conditions: HEK293
T22 construct: purchased Promega (NanoBRET Target Engagement K192 Kinase Selectivity System)
Procedure: as §1, §2, §3, §4

HIPK3 = target: T23, HIPK3 (Homo sapiens, UniProt Q9H422); conditions: HEK293
T23 construct: purchased Promega (NanoBRET Target Engagement K192 Kinase Selectivity System)
Procedure: as §1, §2, §3, §4

PTK2 = target: T24, PTK2 (Homo sapiens, UniProt Q05397); conditions: HEK293
T24 construct: purchased Promega (NanoBRET Target Engagement K192 Kinase Selectivity System)
T24 sequence (Q05397 whole entry): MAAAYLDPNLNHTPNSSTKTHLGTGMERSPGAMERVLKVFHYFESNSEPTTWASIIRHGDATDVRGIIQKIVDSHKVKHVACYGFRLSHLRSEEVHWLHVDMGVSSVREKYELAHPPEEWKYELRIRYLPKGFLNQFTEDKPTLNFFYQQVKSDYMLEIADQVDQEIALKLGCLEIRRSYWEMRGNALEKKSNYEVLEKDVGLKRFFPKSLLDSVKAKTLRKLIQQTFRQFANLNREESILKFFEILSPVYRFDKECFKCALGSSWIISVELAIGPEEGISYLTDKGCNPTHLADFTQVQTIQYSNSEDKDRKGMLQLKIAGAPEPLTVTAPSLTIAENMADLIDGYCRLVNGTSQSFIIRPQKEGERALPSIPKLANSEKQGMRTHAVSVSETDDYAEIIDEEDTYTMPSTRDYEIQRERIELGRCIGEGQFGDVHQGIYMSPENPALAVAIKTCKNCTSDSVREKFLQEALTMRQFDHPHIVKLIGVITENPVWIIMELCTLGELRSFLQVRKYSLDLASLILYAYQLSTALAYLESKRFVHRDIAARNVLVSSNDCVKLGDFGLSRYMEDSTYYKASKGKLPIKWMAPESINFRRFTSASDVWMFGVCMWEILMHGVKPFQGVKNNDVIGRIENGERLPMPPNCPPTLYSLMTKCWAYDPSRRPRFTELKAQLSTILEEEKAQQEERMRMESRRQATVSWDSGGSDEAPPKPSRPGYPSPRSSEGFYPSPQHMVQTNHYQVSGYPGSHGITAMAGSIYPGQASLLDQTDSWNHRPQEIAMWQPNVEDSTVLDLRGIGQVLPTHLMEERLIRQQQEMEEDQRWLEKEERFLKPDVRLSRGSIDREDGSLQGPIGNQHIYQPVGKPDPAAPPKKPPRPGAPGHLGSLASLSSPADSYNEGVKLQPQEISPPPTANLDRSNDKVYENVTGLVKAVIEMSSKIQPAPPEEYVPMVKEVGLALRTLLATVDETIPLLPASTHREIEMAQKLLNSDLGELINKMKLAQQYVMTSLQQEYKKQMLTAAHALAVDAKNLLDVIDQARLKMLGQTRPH
Procedure: as §1, §2, §3, §4

MYLK4 = target: T25, MYLK4 (Homo sapiens, UniProt Q86YV6); conditions: HEK293
T25 construct: purchased Promega (NanoBRET Target Engagement K192 Kinase Selectivity System)
Procedure: as §1, §2, §3, §4

TLK1 = target: T26, TLK1 (Homo sapiens, UniProt Q9UKI8); conditions: HEK293
T26 construct: host or cells: HEK293
T26 sequence (Q9UKI8 whole entry): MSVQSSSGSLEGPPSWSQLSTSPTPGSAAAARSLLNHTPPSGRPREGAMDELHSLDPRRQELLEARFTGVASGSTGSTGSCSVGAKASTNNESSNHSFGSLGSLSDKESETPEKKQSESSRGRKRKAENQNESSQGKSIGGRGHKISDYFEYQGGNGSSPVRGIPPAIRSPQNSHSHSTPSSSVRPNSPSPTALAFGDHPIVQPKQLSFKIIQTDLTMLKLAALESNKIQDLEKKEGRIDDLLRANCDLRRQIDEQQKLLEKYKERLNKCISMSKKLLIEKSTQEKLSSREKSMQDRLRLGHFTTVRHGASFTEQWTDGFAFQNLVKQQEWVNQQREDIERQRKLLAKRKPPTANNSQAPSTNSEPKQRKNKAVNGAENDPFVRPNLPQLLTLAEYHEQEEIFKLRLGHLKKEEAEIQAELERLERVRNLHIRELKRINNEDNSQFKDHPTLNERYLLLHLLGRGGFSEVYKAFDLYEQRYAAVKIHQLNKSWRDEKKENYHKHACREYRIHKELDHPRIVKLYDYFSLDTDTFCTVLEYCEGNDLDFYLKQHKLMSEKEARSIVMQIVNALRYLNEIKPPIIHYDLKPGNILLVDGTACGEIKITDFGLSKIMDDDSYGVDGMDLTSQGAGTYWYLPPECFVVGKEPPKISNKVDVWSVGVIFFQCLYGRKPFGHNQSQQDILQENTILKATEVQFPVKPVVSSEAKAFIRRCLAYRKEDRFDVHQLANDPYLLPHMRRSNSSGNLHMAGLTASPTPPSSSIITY
Procedure: as §1, §2, §3, §4

ITK = target: T27, ITK (Homo sapiens, UniProt Q08881); conditions: HEK293
T27 construct: purchased Promega (NanoBRET Target Engagement K192 Kinase Selectivity System)
Procedure: as §1, §2, §3, §4

STK32B = target: T28, STK32B (Homo sapiens, UniProt Q9NY57); conditions: HEK293
T28 construct: purchased Promega (NanoBRET Target Engagement K192 Kinase Selectivity System)
T28 sequence (Q9NY57 whole entry): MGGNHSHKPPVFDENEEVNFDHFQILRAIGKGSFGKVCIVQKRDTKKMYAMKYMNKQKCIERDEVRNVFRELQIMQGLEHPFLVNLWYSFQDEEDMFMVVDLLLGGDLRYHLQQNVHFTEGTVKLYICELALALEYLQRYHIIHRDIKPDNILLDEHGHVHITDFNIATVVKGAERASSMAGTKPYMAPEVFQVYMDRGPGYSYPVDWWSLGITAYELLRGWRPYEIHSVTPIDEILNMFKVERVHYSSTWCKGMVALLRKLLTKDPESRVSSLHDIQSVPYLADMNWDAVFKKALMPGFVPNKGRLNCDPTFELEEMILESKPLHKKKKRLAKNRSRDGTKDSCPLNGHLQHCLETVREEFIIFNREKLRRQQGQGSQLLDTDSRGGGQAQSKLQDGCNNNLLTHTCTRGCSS
Procedure: as §1, §2, §3, §4

Compound `CCC(=O)Nc1cc(Nc2cc(NC3CC3)n3ncc(C#N)c3n2)c(F)cc1N1CCC[C@H](NC)C1` [Compound 2, (S)-N-(5-((3-cyano-7-(cyclopropylamino)pyrazolo[1,5-a]pyrimidin-5-yl)amino)-4-fluoro-2-(3-(methylamino)piperidin-1-yl)phenyl)propionamide] has a receptor occupancy at 10 µM (NEK9) of 1%, a receptor occupancy at 10 µM (NIM1K) of -23.7% and a receptor occupancy at 10 µM (BMP2K) of 7.6%. For the same compound, the receptor occupancy at 10 µM (CHEK2) was -0.8%, the receptor occupancy at 10 µM (AXL) was -9.2% and the receptor occupancy at 10 µM (MLTK) was 1.1%. The receptor occupancy at 10 µM (IRAK3) was 2.4%, the receptor occupancy at 10 µM (CAMK1) was 26.2% and the receptor occupancy at 10 µM (STK3) was 5.2%. It also gave a receptor occupancy at 10 µM (TEK) of 5.2%, a receptor occupancy at 10 µM (MAP3K9) of 4.3% and a receptor occupancy at 10 µM (CSNK1A1L) of 1.5%. The receptor occupancy at 10 µM (NEK5) was 24.8%, the receptor occupancy at 10 µM (RIOK2) was -1.8% and the receptor occupancy at 10 µM (MYLK2) was 13.1%. For the same compound, the receptor occupancy at 10 µM (PLK3) was 15.5%, the receptor occupancy at 10 µM (MAP4K5) was 8.5% and the “% occupancy at 10 μM” value (DYRK1A; DYRK1A, HEK293) was 71%. The receptor occupancy at 10 µM (DYRK1A; HEK293, DYRK1A) was 71.2%, the receptor occupancy at 10 µM (STK10) was 14.4% and the receptor occupancy at 10 µM (CDK18 + Y) was 17.5%. It also gave a receptor occupancy at 10 µM (MAP3K10) of -2.4%, a receptor occupancy at 10 µM (MKNK2) of 23.6% and a receptor occupancy at 10 µM (HIPK3) of 25.5%. It also gave a receptor occupancy at 10 µM (PTK2) of 15.7%, a receptor occupancy at 10 µM (MYLK4) of 38.5% and a receptor occupancy at 10 µM (TLK1) of -23.1%. For the same compound, the receptor occupancy at 10 µM (ITK) was 11.9% and the receptor occupancy at 10 µM (STK32B) was 5.9%.
